From patent US20240180898A1, “USE OF AMINOTHIAZOLE DERIVATIVE IN TREATMENT OF IMMUNE INFLAMMATION” (INNAMUNE PHARMACEUTICAL CO. LTD., priority 2021, published 2024) come the findings set out here.

The subject of one experiment is mouse eczema model. As to the kind of experiment: mouse atopic dermatitis/eczema model. It counts as in vivo. As to the method: Preparation and grouping of mouse […] model:
Model preparation: Male C57 mice aged 6-8 weeks were treated with 2% M7309 (carboplatin) ointment on their ears once a day for 10 consecutive days.
The experiment was divided into three groups, namely: • Eczema control group (without any treatment, eczema model group), TJ-M2010-5 systemic medication group (intraperitoneal injection), and TJ-M2010-5 local medication group (ointment group). The specific handling method is as follows: • TJ-M2010-5 systemic medication group: A mouse eczema model was taken and TJ-M2010-5 was injected intraperitoneally at a dose of 50 mg/kg, once a day, for 2 consecutive weeks. • TJ-M2010-5 local medication group: Take a mouse eczema model, apply 1% TJ-M2010-5 ointment on the skin, once a day, for 2 consecutive weeks.

Experiment [1] relates to mouse spleen derived B cells. As to the kind of experiment: R848 induced lupus like B cell immune disorder model in vitro. Format: cell-based. Conditions: TJ-5 10 or 20 μmol/L 3 hours before R848 500 ng/ml 48 hours. The method, then:
Preparation and grouping of an in vitro lupus like B cell immune disorder model:
Model preparation: Mouse spleen derived B cells were purified using a magnetic bead sorting kit and cultured in vitro. Stimulating factor CD40L was added to maintain the long-term survival of B cells in vitro. Lupus like B cell immune disorders were induced by stimulating B cells with R848 (500 ng/ml) for 48 hours.
The experiment is divided into four groups, namely: • Control group (without any treatment, normal cultured B cells); • R848 group (model group): Stimulate B cells with R848 (500 ng/ml) for 48 hours; • TJ-5 (10 μM) Group: First use TJ-5 (10 μmol/L) Pre stimulate B cells for 3 hours, then stimulate B cells with R848 (500 ng/ml) for 48 hours; • TJ-5 (20 μM) Group: First use TJ-5 (20 μmol/L) Pre stimulate B cells […] for 3 hours, then stimulate B cells with R848 (500 ng/ml) for 48 hours.
Collect cells and cell culture supernatant for detection after R848 stimulation is completed.

The subject of another experiment is transplanted skin. As to the kind of experiment: allogeneic skin transplantation, Balb/c to B6. Format: in vivo, mouse. Conditions: used for 2 weeks then stopped. The text has this:
The paired mice for transplantation: The donor mouse is a balb/c mouse; The recipient mouse is B6 mouse. Transplant the donor's skin or heart separately to the recipient. After skin transplantation, INNA1605 (TJ-M2010-5) was continuously used for 2 weeks and then stopped. About 38% of the transplanted skin was permanently non-rejection. After administering TJ-M2010-5 for two weeks after allogeneic heart transplantation, 60% of the heart grafts were permanently not rejected. In these surviving recipient mice (non-rejection), the hearts of the same donor mice were transplanted for a second time without any treatment. The result was 100% non-rejection of the heart, confirming the development of immune tolerance against the same antigen (see FIGS. 34 and 35).

For another experiment, the system named is IRI model of mouse liver. As to the kind of experiment: hepatic IRI model, western blotting of liver protein. The settings on record: in vivo. The text has this:
The IRI model of mouse liver was established. Animals were divided into three groups: Sham group, IRI group and IRI+TJ-5 group. Protein extracted from mouse liver was detected.
(A western blot detects proteins with antibodies after separation by electrophoresis.)

For a further experiment, the system named is APP/PS1 transgenic mice. As to the kind of experiment: Alzheimer's disease model, APP/PS1 transgenic mice. Format: in vivo, mouse. The method, then:
Preparation and grouping of Alzheimer's disease mouse models:
The experiment is divided into three groups, namely:
Drug group (APP/PS1+INNA1605 group): APP/PSI transgenic mice were given INNA1605 at a dose of 50 mg/Kg/day (twice a day, 25 mg/Kg each time, intraperitoneal injection once, gavage once);
Model group (APP/PSI group): APP/PSI transgenic mice were given an equal dose of solvent (ddH2O);
Control group: C57BL/6 mice were given an equal dose of solvent (ddH2O).
At 9 months of age, Morris water maze test was conducted to evaluate the spatial learning and memory abilities of APP/PSI mice. After the behavioral experiment was completed, pentobarbital sodium (100 mg/kg) was injected into the abdominal cavity for deep anesthesia. After fully exposing the heart and aorta through thoracotomy, a 20 ml syringe was inserted into the aorta with an infusion needle from the apex of the heart. The needle was fixed and the right atrium was cut open. 30 ml of physiological saline at 4° C. was perfused through the aorta until most of the blood flowed out. The hippocampus and cortical tissue were carefully and quickly separated and stored at −80° C.for subsequent biochemical analysis. The remaining mice were first perfused with 30 ml of 4° C. physiological saline, followed by 30 ml of pre-cooled 4% paraformaldehyde. Then, the whole brain was removed and fixed with 4% paraformaldehyde for another 48 hours. After dehydration, transparency, paraffin embedding, and sectioning, immunohistochemical analysis was performed.

The subject of another experiment is dry eye disease model. As to the kind of experiment: experimental dry eye (EDE) model. It counts as in vivo, mouse. The settings on record: day 9, vs EDE group. The text has this:
Dry eye disease was induced by placing mice in a experimental dry eye (EDE) condition and administering scopolamine to maximize ocular surface dryness. Animals were divided into three groups: non-EDE group, EDE group and EDE+TJ-5 group. Mice were euthanized on day 9 for cellular and molecular analysis.

The next experiment relates to allergic rhinitis model. As to the kind of experiment: OVA allergic rhinitis (AR) model. It counts as in vivo, mouse. As to the method:
To establish a model of AR, mice were injected intraperitoneally with 25 μg ovalbumin (OVA) and 2 mg aluminum hydroxide on days 0, 7, and 14 to promote primary sensitization. One week after the primary sensitization, the secondary immunization was built. Mice were intranasally challenged with 3% OVA daily from 21 to 35 days. Animals were divided into three groups: Sham group, AR group and AR+TJ-5 group. After 35 days of OVA administration, the number of mice rubbing and sneezing within 10 min was recorded. Nasal lavage fluid was collected 12 h after OVA treatment under anesthesia.

Experiment [2] concerns bone marrow derived macrophages. As to the kind of experiment: bone marrow derived macrophage pyroptosis model (LPS + ATP). It counts as cell-based. The method, then: Preparation and grouping of bone marrow derived macrophage pyroptosis model:
Model preparation: After LPS (500 ng/ml) stimulation of bone marrow derived macrophages for 6 hours, ATP (5 mmol/L) stimulation for 2 hours, followed by cell collection and supernatant detection.
The experiment was divided into four groups, namely: • Control group (normal cell culture medium), • Model group (with LPS and ATP stimulation added to the culture medium), • TJ-5 (10 μmol/L) group (2 hours before LPS stimulation, administer 10 μmol/L TJ-5 drug stimulation), • TJ-5 (30 μmol/L) group (2 hours before LPS stimulation, administer 30 μmol/L TJ-5 drug stimulation).
Collect cells and their supernatant for detection at the endpoint of the experiment.

The mark [3] stands for this setting: immunohistochemistry, vs model group.
Where [4] appears, read: TJ-5 10 or 30 μmol/L before LPS + ATP.

As for `O=C(CCN1CCN(Cc2ccccc2)CC1)Nc1nc(-c2ccccc2)cs1` [INNA1605, 3-(4-benzylpiperazine-1-yl)-N-(4-phenylthiazole-2-yl) propionamide], the “therapeutic effect, local medication” value in the experiment with mouse eczema model (1% ointment once a day, 2 weeks) is “excellent therapeutic effects”. For the same molecule, in the experiment with mouse eczema model (after treatment), the “abnormally thickened stratum corneum” value was “can basically restore normal tissue structure” and the inflammation result is “significantly reduced”. For the same molecule, the “various inflammatory factors in the skin” value with mouse eczema model (mouse, in vivo) is given as “decreased”. For the same molecule, in experiment [1], the “abnormal activation and differentiation of B cells” value is “can inhibit abnormal activation and differentiation of B cells”; the “secretion of B cell autoantibodies and inflammatory factors” value was “inhibit the secretion of B cell autoantibodies and inflammatory factors”. In the experiment on transplanted skin, the “transplanted skin permanently non-rejection” value is reported as “About 38%”. Further, in the experiment with IRI model of mouse liver, the “GSDMD cleavage in liver” value was “effectively inhibited GSDMD cleavage”; the “NLRP3, cleavage of caspase-1 (upregulated) and pro-caspase-1 (downregulated) following IRI” value was “this trend was reversed”; the “cleavage of caspase-11” value was “effectively inhibited cleavage of caspase-11”. The “memory (Morris water maze)” value in the experiment with APP/PS1 transgenic mice (50 mg/Kg/day, 9 months of age) was “better memory than APP/PS1 transgenic mice treated with only ddH2O”. In the experiment on APP/PS1 transgenic mice (setting [3]), the “Iba-1 positive microglia (whole brain, cortex, hippocampus)” value was “significantly reduced compared to the model group” and the “brain Aβ deposition (whole brain, cortex, hippocampus)” value is given as “significantly less”. In the experiment with dry eye disease model, the “corneal fluorescein staining score” value is “significantly lower corneal fluorescein staining score”; the “expression of IL-1β, TNF-α, MCP-1 and IL-6 in corneal tissues” value was “reduced expression”. The “levels of IL-4, IL-1β, IL-18 and TNF-α in nasal mucosa” value with allergic rhinitis model (mouse, in vivo) is reported as “decreased”. The “sneezing and nasal rubbing” value in the experiment on allergic rhinitis model (within 10 min after 35 days of OVA) is “relieved these symptoms”. Moreover, the “apoptosis (PI+ cells) of bone marrow derived macrophages” value in experiment [2] (TJ-5 10 or 30 μmol/L 2 hours before LPS 500 ng/ml 6 hours + ATP 5 mmol/L 2 hours) was “can inhibit the apoptosis of bone marrow derived macrophages induced by LPS and ATP”. In experiment [2] (setting [4]), the “activation and cleavage of GSDMD” value is “significantly inhibits the activation and cleavage of GSDMD”; the “assembly and activation of NLRP3 inflammasomes” value was “can block the assembly and activation of NLRP3 inflammasomes”; the “classical and non classical cell pyroptosis pathways” value is “inhibit both classical and non classical cell pyroptosis pathways”; the “maturation and release of Pro-IL-1b and Pro-IL-18” value is “inhibiting the maturation and release”. In addition, in experiment [2] (setting [4]), the “secretion of LDH in cell culture supernatant” value was “reduce the secretion of LDH” and the “secretion of various inflammatory factors” value is “reducing the secretion of various inflammatory factors”.
